What was measured:
Estrogen receptor = target: T1, Estrogen receptor (Homo sapiens, UniProt P03372); details: sf9; also: in other assays of this panel Not Active means under 50% inhibition at 10 µM
T1 sequence (P03372 whole entry): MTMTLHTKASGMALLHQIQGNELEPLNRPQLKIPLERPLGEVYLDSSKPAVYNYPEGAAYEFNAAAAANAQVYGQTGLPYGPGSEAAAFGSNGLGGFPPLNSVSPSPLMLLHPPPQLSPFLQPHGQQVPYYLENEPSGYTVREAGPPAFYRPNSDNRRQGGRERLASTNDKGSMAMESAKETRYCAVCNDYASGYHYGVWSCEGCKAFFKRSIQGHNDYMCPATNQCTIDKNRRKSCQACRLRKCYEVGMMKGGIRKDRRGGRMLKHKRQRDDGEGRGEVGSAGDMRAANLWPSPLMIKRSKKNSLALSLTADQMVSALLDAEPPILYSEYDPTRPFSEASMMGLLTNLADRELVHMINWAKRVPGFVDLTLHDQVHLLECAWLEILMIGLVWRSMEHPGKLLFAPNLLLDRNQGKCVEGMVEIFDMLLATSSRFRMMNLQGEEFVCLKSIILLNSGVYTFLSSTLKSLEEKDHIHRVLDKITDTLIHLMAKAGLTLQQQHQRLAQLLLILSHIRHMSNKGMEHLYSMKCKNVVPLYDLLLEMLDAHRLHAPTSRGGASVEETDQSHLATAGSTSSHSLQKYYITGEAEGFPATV

[1] = target: T2, Alpha-1B adrenergic receptor (Rattus norvegicus, UniProt P15823); assay: DRUGMATRIX: Alpha-1B adrenergic receptor radioligand binding (ligand: prazosin); assay type: cell membranes, Wistar, Liver, Membrane; details: Not Active = under 50% inhibition at 10 µM
T2 sequence (P15823 whole entry): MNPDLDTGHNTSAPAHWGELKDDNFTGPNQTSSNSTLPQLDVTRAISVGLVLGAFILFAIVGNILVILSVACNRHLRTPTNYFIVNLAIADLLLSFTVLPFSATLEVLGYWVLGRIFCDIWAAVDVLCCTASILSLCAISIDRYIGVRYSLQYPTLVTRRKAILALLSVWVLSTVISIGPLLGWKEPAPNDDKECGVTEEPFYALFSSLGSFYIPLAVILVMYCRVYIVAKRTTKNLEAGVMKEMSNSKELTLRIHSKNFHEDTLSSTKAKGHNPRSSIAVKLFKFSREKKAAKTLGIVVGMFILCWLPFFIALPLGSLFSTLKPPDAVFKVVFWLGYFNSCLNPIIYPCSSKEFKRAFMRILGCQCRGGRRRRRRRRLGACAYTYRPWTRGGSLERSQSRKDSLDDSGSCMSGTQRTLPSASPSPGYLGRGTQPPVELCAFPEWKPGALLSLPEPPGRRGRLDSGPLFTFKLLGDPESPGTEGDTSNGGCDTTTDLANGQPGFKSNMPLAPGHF

[2] = target: T3, 5-hydroxytryptamine receptor 2C (Homo sapiens, UniProt P28335); assay: DRUGMATRIX: Serotonin (5-Hydroxytryptamine) 5-HT2C radioligand binding (ligand: [3H] Mesulergine); assay type: cell membranes, CHO-K1, Membrane; details: Not Active = under 50% inhibition at 10 µM
T3 sequence (P28335 whole entry): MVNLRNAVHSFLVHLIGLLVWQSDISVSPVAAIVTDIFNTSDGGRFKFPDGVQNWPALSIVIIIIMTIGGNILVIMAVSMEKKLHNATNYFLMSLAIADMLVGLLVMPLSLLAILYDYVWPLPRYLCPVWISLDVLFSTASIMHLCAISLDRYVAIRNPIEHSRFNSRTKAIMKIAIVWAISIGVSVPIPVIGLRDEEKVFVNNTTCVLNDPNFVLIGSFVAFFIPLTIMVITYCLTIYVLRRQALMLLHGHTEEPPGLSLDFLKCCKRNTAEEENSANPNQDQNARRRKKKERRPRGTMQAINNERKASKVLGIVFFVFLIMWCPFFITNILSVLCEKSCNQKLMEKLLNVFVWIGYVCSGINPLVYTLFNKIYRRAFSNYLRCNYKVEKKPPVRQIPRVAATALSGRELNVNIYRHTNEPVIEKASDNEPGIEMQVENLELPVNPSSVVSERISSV

Mu-type opioid receptor = Mu-type opioid receptor (Homo sapiens, UniProt P35372); assay: DRUGMATRIX: Opiate mu (OP3, MOP) radioligand binding (ligand: [3H] Diprenorphine); assay type: cell membranes, CHO-K1, Membrane; details: Not Active = under 50% inhibition at 10 µM
Sequence of Mu-type opioid receptor (P35372 whole entry): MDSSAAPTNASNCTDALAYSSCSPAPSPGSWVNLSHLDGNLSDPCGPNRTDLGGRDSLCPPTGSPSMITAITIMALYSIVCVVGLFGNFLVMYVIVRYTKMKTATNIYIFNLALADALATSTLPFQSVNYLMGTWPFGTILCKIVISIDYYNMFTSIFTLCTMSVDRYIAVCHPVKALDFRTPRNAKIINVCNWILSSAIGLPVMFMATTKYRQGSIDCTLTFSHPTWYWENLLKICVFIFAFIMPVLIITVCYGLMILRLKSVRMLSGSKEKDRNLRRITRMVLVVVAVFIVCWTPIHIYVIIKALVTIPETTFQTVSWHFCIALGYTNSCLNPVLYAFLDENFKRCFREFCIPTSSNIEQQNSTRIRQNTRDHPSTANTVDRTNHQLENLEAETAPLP

Cytochrome P450 2D6 = Cytochrome P450 2D6 (Homo sapiens, UniProt P10635); also: in other assays of this panel Not Active means under 50% inhibition at 10 µM
Sequence of Cytochrome P450 2D6 (P10635 whole entry): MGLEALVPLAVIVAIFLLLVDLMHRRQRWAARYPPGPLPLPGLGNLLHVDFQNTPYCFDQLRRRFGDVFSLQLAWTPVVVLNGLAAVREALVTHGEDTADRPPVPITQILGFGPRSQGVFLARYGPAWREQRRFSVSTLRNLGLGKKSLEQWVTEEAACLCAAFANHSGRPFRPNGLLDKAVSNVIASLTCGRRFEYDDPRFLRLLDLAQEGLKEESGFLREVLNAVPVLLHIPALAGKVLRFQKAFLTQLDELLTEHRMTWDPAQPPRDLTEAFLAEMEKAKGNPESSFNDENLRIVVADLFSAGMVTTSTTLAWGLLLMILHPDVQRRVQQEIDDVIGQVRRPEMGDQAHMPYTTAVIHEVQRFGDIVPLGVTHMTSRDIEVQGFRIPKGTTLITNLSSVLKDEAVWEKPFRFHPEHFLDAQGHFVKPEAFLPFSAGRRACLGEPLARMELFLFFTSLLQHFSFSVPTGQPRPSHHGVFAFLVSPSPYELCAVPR

Androgen receptor = target: T4, Androgen receptor (Rattus norvegicus, UniProt P15207); also: in other assays of this panel Not Active means under 50% inhibition at 10 µM
T4 sequence (P15207 whole entry): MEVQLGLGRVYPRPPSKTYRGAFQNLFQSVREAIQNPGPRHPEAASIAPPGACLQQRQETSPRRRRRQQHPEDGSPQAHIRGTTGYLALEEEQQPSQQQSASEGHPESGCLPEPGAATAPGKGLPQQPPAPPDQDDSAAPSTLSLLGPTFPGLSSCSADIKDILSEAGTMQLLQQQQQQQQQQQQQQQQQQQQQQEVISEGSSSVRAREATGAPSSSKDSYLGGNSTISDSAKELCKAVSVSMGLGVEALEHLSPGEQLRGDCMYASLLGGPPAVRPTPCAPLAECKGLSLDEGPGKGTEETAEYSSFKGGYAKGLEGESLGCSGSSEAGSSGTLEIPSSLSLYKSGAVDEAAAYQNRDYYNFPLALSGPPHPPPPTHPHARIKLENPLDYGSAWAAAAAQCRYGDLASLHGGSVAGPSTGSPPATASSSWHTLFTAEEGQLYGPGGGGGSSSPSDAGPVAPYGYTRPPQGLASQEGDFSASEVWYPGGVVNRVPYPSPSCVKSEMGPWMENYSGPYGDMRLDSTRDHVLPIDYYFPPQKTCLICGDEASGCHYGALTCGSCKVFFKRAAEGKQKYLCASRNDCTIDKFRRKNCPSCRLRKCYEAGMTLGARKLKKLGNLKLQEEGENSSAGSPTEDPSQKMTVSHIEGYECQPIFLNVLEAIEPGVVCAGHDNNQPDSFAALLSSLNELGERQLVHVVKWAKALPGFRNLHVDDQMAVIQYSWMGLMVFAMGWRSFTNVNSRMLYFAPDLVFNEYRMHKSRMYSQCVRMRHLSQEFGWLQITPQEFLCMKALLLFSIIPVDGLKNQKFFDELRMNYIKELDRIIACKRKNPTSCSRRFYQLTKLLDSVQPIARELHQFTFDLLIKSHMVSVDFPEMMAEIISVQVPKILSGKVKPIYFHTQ

Compound	IC50 (Estrogen receptor)	IC50 [1]	IC50 ([2]; cho-k1)	IC50 (Mu-type opioid receptor; cho-k1)	IC50 (Cytochrome P450 2D6)	IC50 (Androgen receptor)	Ki (Mu-type opioid receptor)	IC50 (Mu-type opioid receptor; read-out: IC50)	IC50 ([2]; read-out: IC50)	Ki ([2]; read-out: Ki)	Ki (Estrogen receptor)	Ki [1]	Ki ([2]; cho-k1)	Ki (Androgen receptor)
Nc1nc(N)c2nc(-c3ccccc3)c(N)nc2n1	Not Active	Not Active	Not Active	Not Active	10000 nM	Not Active	–	–	–	–	–	–	–	–
CC[C@H](C)[C@@H](CO[C@@H](Cc1ccccc1)C(=O)N[C@@H](CCS(C)(=O)=O)C(=O)OC(C)C)NC[C@@H](N)CS	Not Active	Not Active	Not Active	Not Active	700 nM	Not Active	–	–	–	–	–	–	–	–
CCN(CC)C(=S)SSC(=S)N(CC)CC	Not Active	Not Active	Not Active	–	–	Not Active	1420 nM	3510 nM	–	–	–	–	–	–
Oc1ccc(/C=C/c2cc(O)cc(O)c2)cc1 [RESVERATROL]	Not Active	Not Active	Not Active	–	–	Not Active	–	–	–	–	–	–	–	–
CCN(CC)CCNC(=O)c1cc(Cl)c(N)cc1OC [METOCLOPRAMIDE]	Not Active	Not Active	–	Not Active	800 nM	–	–	–	2380 nM	1250 nM	–	–	–	–
CN(C)CCC=C1c2ccccc2COc2ccccc21 [DOXEPIN]	–	–	–	Not Active	–	Not Active	–	–	–	–	–	–	–	–
COC(=O)Nc1nc2ccc(C(=O)c3ccccc3)cc2[nH]1 [MEBENDAZOLE]	Not Active	Not Active	Not Active	Not Active	–	Not Active	–	–	–	–	–	–	–	–
O=[As][O-].[Na+] [SODIUM ARSENITE]	Not Active	Not Active	Not Active	–	–	Not Active	–	–	–	–	–	–	–	–
CC[C@H](C)C(=O)O[C@H]1CCC=C2C=C[C@H](C)[C@H](CC[C@@H]3C[C@@H](O)CC(=O)O3)[C@H]21 [MEVASTATIN]	Not Active	Not Active	Not Active	Not Active	–	Not Active	–	–	–	–	–	–	–	–
LEAD(IV) ACETATE	Not Active	Not Active	Not Active	–	–	Not Active	–	–	–	–	Not Active	Not Active	Not Active	Not Active
Cc1nnc(NS(=O)(=O)c2ccc(N)cc2)s1 [SULFAMETHIZOLE]	Not Active	Not Active	Not Active	Not Active	–	Not Active	–	–	–	–	–	–	–	–
CCN1CCCC1CNC(=O)c1cc(S(N)(=O)=O)ccc1OC (stereo unspecified) [SULPIRIDE]	–	Not Active	Not Active	Not Active	–	Not Active	–	–	–	–	–	–	–	–

From ChEMBL document CHEMBL1909046, “DrugMatrix in vitro pharmacology data”
